The source of these data is US20090274739A1, “METHODS AND COMPOSITIONS FOR TREATING NEOINTIMAL HYPERPLASIA” (THE TRUSTEES OF COLUMBIA UNIVERSITY IN THE CITY OF NEW YORK, priority 2006, published 2009).

“Also recorded” adds a separate entry of the source.

What all share (type): cell-based, mouse
In assay [1] the test system is p70S6K and 4E-BP1 phosphorylation (mTOR substrates). In words: Immunoblot of p70S6K and 4E-BP1 phosphorylation in VSMC. As for the experimental part: (§1) Western blot analysis: The cells were plated in a 100-mm culture dish in DMEM supplemented with 20% FBS for 24 h at 37° C., followed by serum starvation for 48 h. Cells were then treated with different reagents for 30 min. Cells were subsequently lysed on ice for 30 min in RIPA buffer [150 mM NaCl, 100 mM Tris (pH 8.0), 1% Triton X-100, 1% deoxycholic acid, 0.1% SDS, 5 mM EDTA, and 10 mM NaF] supplemented with 1 mM sodium vanadate, 2 mM leupeptin, 2 mM aprotinin, 1 mM phenylmethylsulfonyl fluoride (PMSF), 1 mM DTT, and 2 mM pepstatin A. After centrifugation at 14,000 rpm for 30 min, the supernatant was harvested as the total cellular protein extract, and stored at −70° C. The protein concentration was determined using Bio-Rad protein assay reagent (Richmond, Calif.). The total cellular protein extracts were separated by SDS-polyacrylamide gel electrophoresis (SDS-PAGE) and transferred to nitrocellulose membrane in 20 mM Tris-HCl (pH 8.0) containing 150 mM glycine and 20% (v/v) methanol.
Blots were washed three times in PBS buffer, followed by incubation with the appropriate HRP-linked IgG. The specific proteins in the blots were visualized using an enhanced chemiluminescence reagent (NEN, Boston, Mass.).
Starved murine VSMCs were incubated for 20 min with leptin (100 ng/ml) or 10% FBS, in the absence or presence of rapamycin (100 nmol/L).
(§2) VSMC were plated on 100-mm dishes, serum starved for 72 h in DMEM containing 0.1% FBS, and stimulated with 0.6 or 6 nM (10 or 100 ng/ml) leptin. Extracts were prepared by brief sonication in HKM buffer [40 mM HEPES-KOH (pH 7.6), 7.5 mM MgCl2, 0.5 mM DTT] or, in the case of Akt phosphorylation studies, by lysing cells on ice for 30 min in RIPA buffer. 70 μg of protein per sample were subjected to immunoblotting by standards protocols. Imaging and densitometry were performed on an Odyssey infrared system (Li-Cor, Lincoln, Neb.).

Assay [2] concerns MAPK (p44/p42, ERK1/2) phosphorylation. Put plainly: Immunoblot of MAPK (ERK1/2, p44/p42) phosphorylation in VSMC. As for the experimental part: as §1
Membranes were blocked with 5% nonfat dried milk in PBS containing 0.05% Tween 20 and incubated with antibodies against phospho-(Thr^202/Tyr^204) p42/p44^MAPK and p42/p44^MAPK, phospho-Akt([…]) and anti-Akt, p70^S6K, 4EBP-1. Blots were washed three times in PBS buffer, followed by incubation with the appropriate HRP-linked IgG. The specific proteins in the blots were visualized using an enhanced chemiluminescence reagent (NEN, Boston, Mass.).
as §2

For assay [3], the system named is primary murine aortic vascular smooth muscle cells (VSMC). Put plainly: VSMC proliferation assay (Coulter counter / MTS-based). As for the experimental part: The methods used in the above experiments were as follows: Cell Culture and VSMC Proliferation Assays. Primary VSMC were isolated from aortic explants of wildtype, ob/ob, or db/db mice in the method of Roque et al. 30. VSMC were routinely cultured in Dulbecco's Modified Eagle's Medium (DMEM) containing either 4500 or 1250 mg/L glucose supplemented with 20% FBS at 37° C. in a 5% CO2 incubator. […] Cells were plated at 200,000 cells/ well of a 6 well dish and subsequently serum starved for 72 hr in DMEM media supplemented with 0.1 % FBS. Leptin dissolved in PBS was added directly to serum-free media at concentrations of 1, 10, or 100 ng/ml with […] LY294002 or U0126, and cells were grown for another 72 hr before harvesting. VSMC proliferation was measured by counting samples using a Coulter counter or using the Cell Titre 96 Aqueous One Solution Cell Proliferation Assay kit (Promega). Cell viability was assessed by Trypan Blue staining.
Proliferation of VSMCs: VSMC proliferation was measured by counting triplicate samples using a Coulter counter or using the CellTitier 96 Aqueous One Solution Cell Proliferation Assay (Promega, Madison, Wis.) kit per manufacturer's instructions. Cell viability was assessed via staining with Trypan Blue.
Murine VSMCs (2×10^4 cells/well) were incubated in a 6-well tissue culture plate for 72 hours in DMEM containing 0.1% FBS with or without insulin (10 or 100 nmol/L) and with 0, 1, 10, or 100 nmol/L rapamycin. Triplicate samples were counted using a Coulter counter and were normalized as percentage of the control group. Cell viability was checked via Trypan blue staining.
Murine VSMCs, seeded 2×10^4 cells/well in a 6-well plate, were starved for 72 hrs in DMEM with 0.1% FBS. Rapamycin, leptin, or insulin in different concentrations indicated in the figure were incubated with VSMCs in DMEM with 0.1% of FBS for 72 hrs. Triplicate samples were counted via a Coulter counter. Cell viability was checked via Trypan blue staining. […] In panel C, VSMCs were exposed to U0126, a specific MEK1/2 inhibitor, or LY294002, a specific PI3K inhibitor.
Primary VSMC were isolated from aortic explants of WT, ob/ob, or db/db mice (46). VSMC proliferation was determined using the Cell Titre Aqueous One Solution Proliferation Assay (Promega, Madison, Wis.). Migration to PDGF-BB was assessed in a modified Boyden chamber assay (47).

Regarding “Leptin: recombinant leptin; hormone derived from adipose tissue, encoded by the Ob gene”, the “phosphorylation of S6K and 4EBP-1” value in assay [1] (Example 1, leptin 10 ng/mL, data not shown) is reported as “stimulated the phosphorylation”. Moreover, in assay [1] (Example 2, leptin 100 ng/ml), the “phosphorylation of p70S6K and 4E-BP1” value was “up-phosphorylated”. Further, the S6K phosphorylation entry in assay [1] (Example 5, leptin 0.6 nM, data not shown) is given as “stimulated S6K phosphorylation, albeit less robustly”. The “phosphorylation of S6K” value in assay [1] (Example 5, leptin 6 nM) is listed as “stimulated the phosphorylation”. Besides, the “phosphorylation of the p44 and p42 forms of MAPK” value in assay [2] (Example 1, leptin 10 ng/mL) is on record as “stimulated the phosphorylation”. Also, the “time of maximum ERK1/2 phosphorylation” value in assay [2] (Example 2, leptin 100 ng/ml, decreasing thereafter at 45 min) was determined as 10 min. Besides, in assay [2] (Example 5, leptin 6 nM), the “phosphorylation of MAPK” value is “stimulated”. Also, the VSMC proliferation entry was “potentiated the proliferation of VSMCs in a dose-dependent manner” in assay [3] (Example 2, high (4500 mg/L) and normal (1250 mg/L) glucose, various leptin concentrations); about 80% in assay [3] (co-incubation of leptin 100 ng/ml with insulin 10 nmol/L); “not” in assay [3] (leptin receptor-defective (db/db) VSMC, leptin 1, 10, 100 ng/ml); “induced dose-dependent VSMC proliferation; also recorded: can induce VSMC proliferation; also recorded: increased” in assay [3] (leptin-deficient (ob/ob) VSMC, leptin 1, 10, 100 ng/ml); “increased murine VSMC proliferation in a dose-dependent fashion” in assay [3] (wild type C57BL/6J VSMC, leptin 1, 10, 100 ng/ml (0.06, 0.6, 6 nM), 72 h, vs vehicle); “increased” in assay [3] (wild type C57BL/6J VSMC, leptin 1, 10, 100 ng/ml (0.06, 0.6, 6 nM), 72 h, vs vehicle, listed as leptin).
